Reference: US20200407398A1, “Short Proline-Rich Lipopeptide Potentiates Minocycline and Rifampicin Against Multidrug-and Extensively Drug-Resistant Pseudomonas Aeruginosa” (priority 2018, published 2020)
Square brackets hold non-standard residues; d marks the D form. Peptide text beside a SMILES is read from it. * marks the point of attachment. Lauroyl = CCCCCCCCCCCC(=O)*

Legend:
[1] = system: P. aeruginosa PAO1 (wild-type); assay: microbe, parasite or virus in culture
Procedure: (§1) We evaluated the activity of SPRLPs in combination with fifteen clinically-used antibiotics against P. aeruginosa. Antibiotics tested included fluoroquinolones (moxifloxacin, ciprofloxacin and levofloxacin), aminoglycosides (gentamicin, tobramycin and amikacin), cephalosporins (ceftazidime and cefotaxime), carbapenems (meropenem and doripenem), aztreonam, rifampicin, minocycline, colistin and fosfomycin. The SPRLPs were screened initially at a fixed concentration of 8 μg/mL (5 μM) in combination with antibiotics against wild-type P. aeruginosa PAO1. We assessed potentiation by at least a four-fold absolute MIC reduction of the antibiotic, after which synergism was further validated by a conventional checkerboard assay. A fractional inhibitory concentration (FIC) index of ≤0.5, 0.5<x≤4 or >4 was interpreted as synergistic, indifferent or antagonistic interaction, respectively (31). FIC index was obtained by adding the FIC values of the antibiotic and the SPRLP adjuvant. FIC of antibiotics was calculated by dividing the MIC of the antibiotic in the presence of the adjuvant by the MIC of the antibiotic alone. Similarly, the FIC of adjuvant was calculated via dividing the MIC of the adjuvant in the presence of the antibiotic by the MIC of the adjuvant alone.
(§2) Microbroth dilution susceptibility test following the Clinical and Laboratory Standards Institute (CLSI) guidelines (32) was performed to assess the in vitro antibacterial activity of SPRLPs. Overnight grown bacterial cultures were diluted in saline to achieve a 0.5 McFarland turbidity, followed by 1:50 dilution in Mueller-Hinton broth (MHB) for inoculation to a final concentration of 5×10^5 colony forming units/mL. The assay was done on a 96-well plate to which the agents of interest were 2-fold serially diluted in MHB and incubated with equal volumes of inoculum at 37° C. for 18 hours. MIC was determined as the lowest concentration to inhibit visible bacterial growth in form of turbidity, which was confirmed using EMax Plus microplate reader (Molecular Devices, USA) at a wavelength of 590 nm. The well containing MHB broth with or without bacterial cells was used as positive or negative control, respectively.
(§3) The assay was performed on a 96-well plate, to which the agents of interest was 2-fold serially diluted in working MHB. Prior to serial dilution, SPRLP was added to the working MHB media so that a fixed final concentration of 8 μg/mL (5 μM) SPRLP per well was achieved. To ensure that the assay was working, the MIC determination test of the studied antibiotic (without SPRLP) was included on the same plate. Similar MIC results between the assay comparator and an independent MIC determination test (on a different plate) ensured validity of the synergy test. Overnight grown bacterial cultures were diluted in saline to 0.5 McFarland turbidity, followed by 1:50 dilution in MHB (without SPRLP) and inoculation into each well to a final concentration of approximately 5×10^5 colony forming units/mL. Wells containing only MHB (without SPRLP) with or without bacterial cells were used as positive or negative control, respectively. The plate was then incubated at 37° C. for 18 hours and examined for visible turbidity, to which was confirmed using EMax Plus microplate reader (Molecular Devices, USA) at a wavelength of 590 nm. A 4-fold or more MIC reduction of antibiotic in the presence of 8 μg/mL (5 μM) SPRLP denoted a positive synergy result and was further validated by a checkerboard assay.
The assay was done on a 96-well plate as previously described (40, 41). The agent of interest was 2-fold serially diluted along the x-axis, while the adjuvant was 2-fold serially diluted along the y-axis to create a matrix in which each well consist of a combination of both at different concentrations.

[2] = system: P. aeruginosa 259-96918 (MDR/XDR); assay: microbe, parasite or virus in culture; conditions: P. aeruginosa 259-96918; for MIC (agent alone): antibiotic or lipopeptide alone
Procedure: as §1
(§4) Isolates used in this study were either obtained from the American Type Culture Collection (ATCC), the Canadian National Intensive Care Unit (CAN-ICU) surveillance study (27) or the Canadian Ward Surveillance (CANWARD) study (28). Clinical isolates belonging to the CAN-ICU and CANWARD studies were recovered from patients suffering a presumed infectious disease entering or admitted in a participating medical center across Canada during the time of study. MDR P. aeruginosa strains in this study refer to those that are resistant to aminoglycosides, fluoroquinolones, cephalosporins, and carbapenems while XDR strains are those that are resistant to aminoglycosides, fluoroquinolones, cephalosporins, carbapenems, aztreonam and penicillin+β-lactamase inhibitor combination (39, 40).
as §2
as §3, with “respectively.” for “respectively. The plate was then incubated at 37° C. for 18 hours and examined for visible turbidity, to which was confirmed using EMax Plus microplate reader (Molecular Devices, USA) at a wavelength of 590 nm. A 4-fold or more MIC reduction of antibiotic in the presence of 8 μg/mL (5 μM) SPRLP denoted a positive synergy result and was further validated by a checkerboard assay.”

[3] = system: P. aeruginosa 101243 (colistin-resistant, MDR/XDR); assay: microbe, parasite or virus in culture
Procedure: as §1, §4, §2
as §3, with “respectively.” for “respectively. The plate was then incubated at 37° C. for 18 hours and examined for visible turbidity, to which was confirmed using EMax Plus microplate reader (Molecular Devices, USA) at a wavelength of 590 nm. A 4-fold or more MIC reduction of antibiotic in the presence of 8 μg/mL (5 μM) SPRLP denoted a positive synergy result and was further validated by a checkerboard assay.”

[4] = system: P. aeruginosa 262-101856 (MDR/XDR); assay: microbe, parasite or virus in culture; conditions: P. aeruginosa 262-101856; for Absolute MIC MIN: MIC of minocycline in the presence of 8 μg/mL (5 μM) lipopeptide; for MIC (agent alone): antibiotic or lipopeptide alone
Procedure: as §1, §4, §2
as §3, with “respectively.” for “respectively. The plate was then incubated at 37° C. for 18 hours and examined for visible turbidity, to which was confirmed using EMax Plus microplate reader (Molecular Devices, USA) at a wavelength of 590 nm. A 4-fold or more MIC reduction of antibiotic in the presence of 8 μg/mL (5 μM) SPRLP denoted a positive synergy result and was further validated by a checkerboard assay.”

[5] = system: P. aeruginosa 264-104354 (MDR/XDR); assay: microbe, parasite or virus in culture; conditions: P. aeruginosa 264-104354; for MIC (agent alone): antibiotic or lipopeptide alone
Procedure: as §1, §4, §2
as §3, with “respectively.” for “respectively. The plate was then incubated at 37° C. for 18 hours and examined for visible turbidity, to which was confirmed using EMax Plus microplate reader (Molecular Devices, USA) at a wavelength of 590 nm. A 4-fold or more MIC reduction of antibiotic in the presence of 8 μg/mL (5 μM) SPRLP denoted a positive synergy result and was further validated by a checkerboard assay.”

[6] = system: wild-type and MDR/XDR P. aeruginosa clinical isolates; conditions: for interaction with minocycline (in words) / interaction with rifampicin (in words): checkerboard assay, P. aeruginosa; for MIC (lipopeptide alone): wild-type and clinical isolates of P. aeruginosa
Procedure: as §1, §4, §2
as §3, with “respectively.” for “respectively. The plate was then incubated at 37° C. for 18 hours and examined for visible turbidity, to which was confirmed using EMax Plus microplate reader (Molecular Devices, USA) at a wavelength of 590 nm. A 4-fold or more MIC reduction of antibiotic in the presence of 8 μg/mL (5 μM) SPRLP denoted a positive synergy result and was further validated by a checkerboard assay.”

[7] = P. aeruginosa PAO1, degree of minocycline potentiation in the presence of 8 μg/mL (5 μM) lipopeptide
[8] = P. aeruginosa PAO1, degree of rifampicin potentiation in the presence of 8 μg/mL (5 μM) lipopeptide
[9] = degree of minocycline potentiation in the presence of 8 μg/mL (5 μM) lipopeptide
[10] = degree of rifampicin potentiation in the presence of 8 μg/mL (5 μM) lipopeptide
[11] = P. aeruginosa 101243 (colistin-resistant), degree of minocycline potentiation in the presence of 8 μg/mL (5 μM) lipopeptide
[12] = P. aeruginosa 101243 (colistin-resistant), degree of rifampicin potentiation in the presence of 8 μg/mL (5 μM) lipopeptide
[13] = MIC of minocycline in the presence of 8 μg/mL (5 μM) lipopeptide
[14] = MIC of rifampicin in the presence of 8 μg/mL (5 μM) lipopeptide

For `CCCCCCCCCCCC(=O)N1CCC[C@H]1C(=O)N[C@@H](CCCNC(=N)N)C(=O)N1CCC[C@H]1C(=O)N[C@@H](CCCNC(=N)N)C(=O)N1CCC[C@H]1C(=O)N[C@@H](CCCNC(=N)N)C(=O)N1CCC[C@H]1C(N)=O` [Compound C12-PRP, CH3(CH2)10CO-PRPRPRP-NH2] (Lauroyl-PRPRPRP-NH2), the Potentiation [1, 7] was 8-fold, the Potentiation [1, 8] was 8-fold and the “MIC (agent alone)” value ([1]; PAO1) was 128 µg/mL. For the same compound, the “MIC (agent alone)” value [2] was >128 µg/mL, the Potentiation [2, 9] was 8-fold and the Potentiation [2, 10] was 8-fold. For the same compound, the “MIC (agent alone)” value ([3]; 101243 (colistin-resistant, MDR/XDR)) was 128 µg/mL, the Potentiation [3, 11] was 4-fold and the Potentiation [3, 12] was 32-fold. For the same compound, the FIC index ([3]; P. aeruginosa 101243 (colistin-resistant), lipopeptide in combination with minocycline (MIN)) was 0.31, the FIC index ([3]; P. aeruginosa 101243 (colistin-resistant), lipopeptide in combination with rifampicin (RMP)) was 0.09 and the “Absolute MIC MIN” value [4] was 16 µg/mL. The “MIC (agent alone)” value [4] was >128 µg/mL, the Potentiation [4, 9] was 4-fold and the Potentiation [4, 10] was “none”. For the same compound, the “MIC (agent alone)” value [5] was >128 µg/mL, the Potentiation [5, 9] was 16-fold and the Potentiation [5, 10] was 16-fold. For the same compound, the “strains in which MIC of rifampicin reached susceptibility breakpoint” value ([6]; 8 μg/mL (5 μM) lipopeptide, breakpoint ≤1 μg/mL (CLSI, Staphylococcus spp.)) was “five out of nine”, the “strains in which MIC of minocycline was reduced below susceptibility breakpoint” value ([6]; 8 μg/mL (5 μM) lipopeptide, breakpoint ≤4 μg/mL (CLSI, Acinetobacter spp.)) was “seven out of nine” and the “interaction with minocycline (in words)” value [6] was “strongly synergistic”. For the same compound, the “interaction with rifampicin (in words)” value [6] was “significant potentiation” and the “MIC (lipopeptide alone)” value [6] was “inactive”.

`CCCCCCCCCCCC(=O)N1CCC[C@@H]1C(=O)N[C@H](CCCNC(=N)N)C(=O)N1CCC[C@@H]1C(=O)N[C@H](CCCNC(=N)N)C(=O)N1CCC[C@@H]1C(=O)N[C@H](CCCNC(=N)N)C(=O)N1CCC[C@@H]1C(N)=O` [C12-prp] (Lauroyl-[dP][dR][dP][dR][dP][dR][dP]-NH2) was tested, and the “Absolute MIC MIN” value ([1]; P. aeruginosa PAO1, MIC of minocycline in the presence of 8 μg/mL (5 μM) lipopeptide) was 2 µg/mL, the “Absolute MIC RMP” value ([1]; P. aeruginosa PAO1, MIC of rifampicin in the presence of 8 μg/mL (5 μM) lipopeptide) was 1 µg/mL and the “MIC (agent alone)” value ([1]; P. aeruginosa PAO1, antibiotic or lipopeptide alone) was >128 µg/mL. For the same compound, the Potentiation [1, 7] was 4-fold, the Potentiation [1, 8] was 8-fold and the “Absolute MIC MIN” value [2, 13] was 4 µg/mL. The “Absolute MIC RMP” value [2, 14] was 2 µg/mL, the “MIC (agent alone)” value [2] was >128 µg/mL and the Potentiation [2, 9] was 4-fold. The Potentiation [2, 10] was 8-fold, the “Absolute MIC MIN” value ([3]; P. aeruginosa 101243 (colistin-resistant), MIC of minocycline in the presence of 8 μg/mL (5 μM) lipopeptide) was 2 µg/mL and the “Absolute MIC RMP” value ([3]; P. aeruginosa 101243 (colistin-resistant), MIC of rifampicin in the presence of 8 μg/mL (5 μM) lipopeptide) was 0.5 µg/mL. The “MIC (agent alone)” value ([3]; P. aeruginosa 101243 (colistin-resistant), antibiotic or lipopeptide alone) was >128 µg/mL, the Potentiation [3, 11] was 2-fold and the Potentiation [3, 12] was 8-fold. The “Absolute MIC MIN” value [4] was 16 µg/mL, the “Absolute MIC RMP” value [4, 14] was 256 µg/mL and the “MIC (agent alone)” value [4] was >128 µg/mL. For the same compound, the Potentiation [4, 9] was 4-fold, the Potentiation [4, 10] was 2-fold and the “Absolute MIC MIN” value [5, 13] was 4 µg/mL. The “Absolute MIC RMP” value [5, 14] was 2 µg/mL, the “MIC (agent alone)” value [5] was >128 µg/mL and the Potentiation [5, 9] was 8-fold. For the same compound, the Potentiation [5, 10] was 4-fold, the “interaction with minocycline (in words)” value [6] was “potentiated” and the “interaction with rifampicin (in words)” value [6] was “potentiated”. For the same compound, the “MIC (lipopeptide alone)” value [6] was > 128 µg/mL.
